Counter-ions that a name gives are not always drawn.
Columns and labels:
[1] = molecular target: T1, Solute carrier organic anion transporter family member 1A1 (Rattus norvegicus, UniProt P46720); assay: (§1) TP_TRANSPORTER: uptake in Oatp1-expressing COS-7 cells; type: functional, cell-based; conditions: monkey
T1 sequence (P46720 whole entry): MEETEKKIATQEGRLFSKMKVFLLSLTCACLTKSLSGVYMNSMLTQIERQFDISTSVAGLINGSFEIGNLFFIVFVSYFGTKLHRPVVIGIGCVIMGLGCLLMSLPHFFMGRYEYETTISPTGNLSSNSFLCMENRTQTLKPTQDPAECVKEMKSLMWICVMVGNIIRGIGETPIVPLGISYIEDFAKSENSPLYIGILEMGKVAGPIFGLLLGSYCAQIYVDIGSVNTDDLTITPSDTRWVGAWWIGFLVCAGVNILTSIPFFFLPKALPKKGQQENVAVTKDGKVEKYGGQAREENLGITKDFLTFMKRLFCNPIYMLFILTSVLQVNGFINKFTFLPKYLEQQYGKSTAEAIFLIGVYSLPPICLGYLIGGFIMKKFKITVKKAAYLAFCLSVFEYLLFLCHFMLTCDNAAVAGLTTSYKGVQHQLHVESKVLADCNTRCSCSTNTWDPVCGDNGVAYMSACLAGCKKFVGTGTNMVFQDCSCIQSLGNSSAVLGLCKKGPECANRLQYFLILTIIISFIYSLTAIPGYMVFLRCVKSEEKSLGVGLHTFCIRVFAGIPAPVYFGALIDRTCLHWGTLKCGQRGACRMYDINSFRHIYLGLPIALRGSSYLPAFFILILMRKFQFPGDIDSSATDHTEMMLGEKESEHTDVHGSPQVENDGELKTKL

[2] = substrate: C[C@]12CC[C@@H]3c4ccc(O)cc4CC[C@H]3[C@@H]1CC[C@@H]2O[C@@H]1O[C@H](C(=O)O)[C@@H](O)[C@H](O)[C@H]1O; assay: as §1; type: functional, cell-based

## CNc1nc2c(Cc3cccnc3)c(C)c(OS(=O)(=O)O)c(C)c2s1 [E3040 SULFATE]
[1]
  Activity: substrate [+]

## C[C@]12CC[C@@H]3c4ccc(OS(=O)(=O)O)cc4CC[C@H]3[C@@H]1CCC2=O [ESTRONE SULFURIC ACID]
[1]
  Activity: substrate [+]

B1: Solute carrier organic anion transporter family member 1A1 (Rattus norvegicus) (protein)
chain: T1 sequence (P46720 whole entry)
[2]
  Km: 20.4 µM

From ChEMBL document CHEMBL2074169, “Contribution of organic anion transporting polypeptide to uptake of its possible substrates into rat hepatocytes” (J Pharmacol Exp Ther, 1999)
